Measured values published in patent US12479800B2, “Phenylpropionamide compound and use thereof” (MEDSHINE DISCOVERY INC., priority 2020, dated 2025).
Where a SMILES comes first, the peptide text is derived from it. [ ]: non-standard residue; d: D form. The star is where a group is joined. Gly(N-(2R-Ph-propyl)) = C[C@@H](CNCC(=O)O)c1ccccc1; Piperidin1yl(4-NH2,4-COOH) = NC1(C(=O)O)CCN(*)CC1; dGly(cPent) = N[C@@H](C(=O)O)C1CCCC1; dAla(cPr) = N[C@H](CC1CC1)C(=O)O; X1 = CC(=O)N1CC2(CCN(*)CC2)C1

Columns and labels:
[1] = system: Human hepatocyte; assay: Metabolic stability (HMS) study in human hepatocytes; type: in vitro ADME; settings: 0.5×10^6 cells/mL
Protocol: (§1) To test the metabolic stability of the test compound in human and rat hepatocytes.
(§2) 2.1 Test Compound (10 mM), Reference Substance: 7-Ethoxycoumarin, 30 mM, 7-Hydroxycoumarin, Reference Substance, 30 mM
(§3) Culture medium for thawing: Williams' E medium containing 5% fetal bovine serum and 30% Percoll solution and other auxiliary materials.
(§4) Culture medium for incubation: Williams' E medium (without phenol red), wherein containing 2 mM L-glutamine and 25 mM of hydroxyethyl piperazine ethanesulfonic acid.
(§5) Termination solution: acetonitrile containing 200 ng/mL of tolbutamide and labetalol as internal standard.
(§6) Dilution solution: ultrapure water. […]
(§7) The elimination rate constant k of the test compound and the control compound in hepatocyte was calculated by plotting the logarithm of the time to the residual rate, and the half-life (T1/2) and the intrinsic clearance rate in vitro (CLint) were obtained by the elimination rate constant k with the following formula: T1/2=0.693/k CLint(hep)=k/number of cells per mL(million cells/mL) CLint(liver)=CLint(hep)×ratio of liver weight to body weight×number of hepatocytes per gram of liver […]

[2] = target: Kappa receptor (Homo sapiens (Human), UniProt P41145); assay: cAMP test of Kappa receptor; type: cell-based; settings: KOR cAMP cells; read-out: EC50 value of the compound to Kappa receptor
Protocol: Experimental Embodiment 1: cAMP Test of Kappa Receptor
Experimental buffer: 1*HBSS (+/+) (SIGMA #H1387)+20 mM HEPES (LONZA #17-737E)
Stimulation buffer (STB): 200 μM IBMX (SIGMA #I7018) and 3 μM NKH477 (SIGMA #N3290) experimental buffer
Experimental Methods and Steps
The compound powder was dissolved with DMSO (Amresco #0231), and the concentration of the compound solution was 10 mM. 1 μL of the test compound was taken, and 49 μL of DMSO was added thereto, and the mixture was diluted to 200 μM of solution.
A LDV 384-well plate was taken, and the compound solution diluted in the previous step was respectively added to wells A1 to H1; a pre-prepared 200 μM of U-50488 (Tocris #0495/25) was taken and added to well P1; 10.8 μL of DMSO was added to each well of A2 to A11, […], and P2 to P11, respectively, and the mixture was centrifuged at 1000 rpm for 30 seconds.
Continuous gradient dilutions of compounds were performed with bravo, and the first column of LDV plate prepared in the previous step was taken as the initial concentration column, and 5 μL was sucked into the next column each time and blown and mixed evenly.
After the dilution was completed, 10 μL 200 μM of U-50488 was added to well A24 as HPE (100% inhibition rate activity), and 10 μL of DMSO was added to well P24 as ZPE (0% inhibition rate activity), and the mixture was centrifuged at 1000 rpm for 30 seconds.
According to the experimental layout, the compound solution diluted in the previous step was transferred to the experimental plate Corning 3824 with Echo 550, 50 nL per well.
A set of frozen KOR cAMP cells was taken from the −80° C. refrigerator and thawed in a 37° C.-water bath.
After thawing, the cells in the tube were aspirated into a 15 mL centrifuge tube, and 4 mL of experimental buffer was added thereto. […]
Cell density was counted and adjusted on a cell counter to 1.5*10^6 cells/mL. […]
Experimental plates were read with Envision.

[3] = Plasma protein binding rate (PPB) test, human plasma; type: in vitro ADME; settings: 2 μM, equilibrium dialysis 4 hours 37° C.
Protocol: (§8) To test the protein binding rate of the test compound in human and SD rat plasma.
(§9) The frozen plasma was thawed in flowing cold tap water, and then the plasma was centrifuged at 3220×g for 5 minutes to remove the suspension and precipitate. The pH of plasma was determined, and only the plasma with a pH between 7.0 to 8.0 could be used for experiments.
(§10) The experiment was used a 96-well balanced dialysis plate (HTDialysis device) to determine the plasma protein binding rate of the test compound and control compound. Before the experiment was started, the dialysis membrane was pretreated according to the description, and then the dialysis device was assembled as required. The blank plasma of human and SD rats (plasma purchased from BioreclamationIVT) was taken, and the test compound working solution or the warfarin working solution was added to make the final concentration of the test compound and warfarin in the plasma samples both 2 μM. The sample was mixed well. […] The unbound rate (Unbound) %, bound rate (Bound) % and recovery rate (Recovery) % of the compound were calculated by the following formula: % Unbound=100*FC/TC, % Bound=100−% Unbound, % Recovery=100*(FC+TC)/T0. […]

[4] = Plasma protein binding rate (PPB) test, SD rat plasma; type: in vitro ADME; settings: 2 μM, equilibrium dialysis 4 hours 37° C.
Protocol: as §8, §9, §10

[5] = In vivo pharmacokinetic study in SD rats; set-up: species or system Sprague Dawley rats; settings: intravenous 3 mg/kg
Protocol: To test the in vivo pharmacokinetics of test compound in SD rats
Sprague Dawley rats (male, 6 to 10 weeks old, purchased from Beijing Vital River Laboratory Animal Co., LTD)
Compound 1 was mixed with normal saline to prepare a clear solution of 1 mg/mL for injection group administration, filtered by microporous membranes and ready for use. The test compound was administered intravenously at 3 mg/kg, and the solvent for intravenous administration was normal saline. Plasma samples were collected at 0, 0.083, 0.25, 0.5, 1.0, 2.0, 4.0, 8.0 and 24 hours after administration. The plasma concentration was determined by LC-MS/MS method, and the relevant pharmacokinetic parameters were calculated by non-compartmental model linear logarithmic trapezoidal method using WinNonlin™ Version 6.3 (Pharsight, Mountain View, CA) pharmacokinetic software.

[6] = system: Rat hepatocyte; assay: Metabolic stability (HMS) study in rat hepatocytes; type: in vitro ADME; settings: 0.5×10^6 cells/mL
Protocol: as §1, §2, §3, §4, §5, §6, §7

SMILES	Intrinsic clearance rate in liver [1] [mL/min/kg]	EC50 [2] [nM]	Unbound rate in plasma [3] [%]	Unbound rate in plasma [4] [%]	AUC0-last [5] [µM·h]	Cl (total clearance rate) [5] [mL/min/kg]	T1/2 (elimination half-life) [5] [h]	Vdss (steady-state apparent volume of distribution) [5] [L/kg]	C0 ([5]; read-out: C0 (initial concentration)) [µM]	Intrinsic clearance rate in liver [6] [mL/min/kg]
C[C@@H](CNCC(=O)N[C@H](Cc1ccccc1)C(=O)N[C@H](CC1CC1)C(=O)N[C@H](CCCCN)C(=O)N1CCC(N)(C(=O)O)CC1)c1ccccc1 [Compound 1] (H-[Gly(N-(2R-Ph-propyl))][dF][dAla(cPr)][dK]-{Piperidin1yl(4-NH2,4-COOH)})	<17.8	0.085	55.2	44.7	7.2	9.90	1.33	0.29	17.6	<29.9
C[C@@H](CNCC(=O)N[C@H](Cc1ccccc1)C(=O)N[C@@H](C(=O)N[C@H](CCCCN)C(=O)N1CCC(N)(C(=O)O)CC1)C1CCCC1)c1ccccc1 [Compound 2] (H-[Gly(N-(2R-Ph-propyl))][dF][dGly(cPent)][dK]-{Piperidin1yl(4-NH2,4-COOH)})		0.311								
CC(=O)N1CC2(CCN(C(=O)[C@@H](CCCCN)NC(=O)[C@@H](CC3CC3)NC(=O)[C@@H](Cc3ccccc3)NC(=O)CNC[C@H](C)c3ccccc3)CC2)C1 [Compound 4] (H-[Gly(N-(2R-Ph-propyl))][dF][dAla(cPr)][dK]-X1)		0.034								
